Experiments:
[1] = system: Medicago lupulina (black medic); assay: Glasshouse trial, control of black medic, post-emergence application; format: in vivo; settings: ethofumesate 210 g ai/ha plus mesotrione at 100 g ai/ha
Method: A glasshouse trial was carried out. Goosegrass seeds were sown into standard glasshouse potting mix (1:1 v/v Promix: Vero sand soil) contained in 10 cm square plastic pots. Treatments were replicated three times. Mesotrione (in the form Callisto® 480SE) was applied post-emergence to goosegrass (Eleusine indica) at either 100 g ai/ha or 200 g ai/ha with or without ethofumesate (in the form Prograss®). When used, ethofumesate was applied at a rate of 210 g ai/ha, 420 g ai/ha or 840 g ai/ha. The adjuvant system was X-77 at 0.1% v/v in deionised water. 200 litres of herbicide/adjuvant system was used per hectare. General weed control was evaluated at 7 and 14 days after treatment (DAT). It is noted that all herbicides were applied at reduced field rates because herbicide effects are magnified in a glasshouse environment. Rates were chosen to give a 50 to 70% level of control with herbicides applied alone as this allows for detection of any synergistic effect when tank mixtures are used. The results were evaluated using the Colby formula. The expected result for (A+B) is (A+B)−(A×B/100) where A and B are the ‘observed’ results for A and B on their own. […] A glasshouse trial was carried out as described in Example 1, except that Medicago lupulina (black medic) was used in place of goosegrass, and only one rate combination was tested.

[2] = system: goosegrass (Eleusine indica); assay: Glasshouse trial, control of goosegrass, post-emergence application; format: in vivo; set-up: key: % weed control; expected = A+B−(A×B/100) (Colby); settings: for Actual (weed control): X-77 0.1% v/v, * indicates synergy
Method: In the following tests, herbicides were applied at reduced field rates because herbicide effects are magnified in a glasshouse environment. The rates tested were selected to give between about 50 and 70% control with herbicides applied alone, so that any synergistic effect could be readily detected when testing mixtures. A glasshouse trial was carried out. Goosegrass seeds were sown into standard glasshouse potting mix (1:1 v/v Promix: Vero sand soil) contained in 10 cm square plastic pots. Treatments were replicated three times. Mesotrione (in the form Callisto® 480SE) was applied post-emergence to goosegrass (Eleusine indica) at either 100 g ai/ha or 200 g ai/ha with or without ethofumesate (in the form Prograss®). When used, ethofumesate was applied at a rate of 210 g ai/ha, 420 g ai/ha or 840 g ai/ha. The adjuvant system was X-77 at 0.1% v/v in deionised water. 200 litres of herbicide/adjuvant system was used per hectare. General weed control was evaluated at 7 and 14 days after treatment (DAT). It is noted that all herbicides were applied at reduced field rates because herbicide effects are magnified in a glasshouse environment. Rates were chosen to give a 50 to 70% level of control with herbicides applied alone as this allows for detection of any synergistic effect when tank mixtures are used. The results were evaluated using the Colby formula. The expected result for (A+B) is (A+B)−(A×B/100) where A and B are the ‘observed’ results for A and B on their own.

[3] = ethofumesate 210 g ai/ha plus mesotrione at 200 g ai/ha
[4] = ethofumesate 420 g ai/ha plus mesotrione at 100 g ai/ha
[5] = ethofumesate 420 g ai/ha plus mesotrione at 200 g ai/ha
[6] = ethofumesate 840 g ai/ha plus mesotrione at 100 g ai/ha
[7] = ethofumesate 840 g ai/ha plus mesotrione at 200 g ai/ha

CCOC1Oc2ccc(OS(C)(=O)=O)cc2C1(C)C (racemic) [Ethofumesate, (±)-2-ethoxy-2,3-dihydro-3,3-dimethylbenzofuran-5-yl methanesulfonate]
Expected (weed control, Colby formula) [1]: 85
Actual (weed control) ([1]; * indicates synergy): 94*
Expected (weed control, Colby formula) [2, 3]: 30
Actual (weed control) [2, 3]: 45*
Expected (weed control, Colby formula) [2, 4]: 25
Actual (weed control) [2, 4]: 37*
Expected (weed control, Colby formula) [2, 5]: 30
Actual (weed control) [2, 5]: 52*
Expected (weed control, Colby formula) [2, 6]: 25
Actual (weed control) [2, 6]: 55*
Expected (weed control, Colby formula) [2, 7]: 30
Actual (weed control) [2, 7]: 72*

— patent US20100311585A1, “HERBICIDAL COMPOSITION AND METHOD OF USE THEREOF” (SYNGENTA CROP PROTECTION, INC., priority 2007, published 2010)
